Where two headings read alike, the source gives them in different places.
Legend:
[1] = tested on: Ba/F3-FL-TYK2-P760L cells; assay: Anti-proliferative assay in engineered Ba/F3 cells (Cell-Titer Glo, 72 h); format: cell-based; conditions: Mus musculus, concentration that causes 50% growth inhibition, read-out: Baf3-FL-T2P760L
How it was run: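 Ba/F3 cells carrying Tel-dimerization/JAK kinase fusion, IL-3-independent, in RPMI-1640 + 10% FBS; 9-point 3-fold dilutions from 20 µM (0.1% DMSO) added after 24 h, 72 h at 37 °C. Viability by Cell-Titer Glo ATP luminescence; % inhibition versus DMSO cells, blank-corrected, giving IC50.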

JAK1-JH2 domain = molecular target: T1, JAK1-JH2 domain (Homo sapiens, UniProt P23458); assay: Binding activity test for JH2 domain of JAK1 (Tb-antibody/tracer FRET); conditions: JH2 domain enzyme; 60 min at 25°C, then 4°C overnight; read-out: JAK1 JH2 Binding IC50
T1 construct: JAK1-JH2 domain or TYK2-JH2 domain enzyme in assay buffer
How it was run: (§1)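 Competitive TR-FRET binding: compounds dispensed as an 11-point 3-fold dilution series, then Tb-labelled antibody and tracer added to the JH2 protein system. Incubated at 25°C, then overnight at 4°C; FRET signal read on Envision and IC50 (nM) derived.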

TYK2-JH2 domain = molecular target: T2, TYK2-JH2 domain (Homo sapiens, UniProt P29597); assay: Binding activity test for JH2 domain of TYK2 (Tb-antibody/tracer FRET); conditions: for IC50: JH2 domain enzyme, 60 min at 25°C, then 4°C overnight, read-out: TYK2 JH2 Binding IC50; for JAK1/TYK2 selectivity: ratio of JAK1 JH2 to TYK2 JH2 binding IC50
T2 construct: JAK1-JH2 domain or TYK2-JH2 domain enzyme in assay buffer
How it was run: as §1

[2] = BaF3, 72 h, 72 h compound treatment

T1 sequence (P23458 583-855 limits assumed): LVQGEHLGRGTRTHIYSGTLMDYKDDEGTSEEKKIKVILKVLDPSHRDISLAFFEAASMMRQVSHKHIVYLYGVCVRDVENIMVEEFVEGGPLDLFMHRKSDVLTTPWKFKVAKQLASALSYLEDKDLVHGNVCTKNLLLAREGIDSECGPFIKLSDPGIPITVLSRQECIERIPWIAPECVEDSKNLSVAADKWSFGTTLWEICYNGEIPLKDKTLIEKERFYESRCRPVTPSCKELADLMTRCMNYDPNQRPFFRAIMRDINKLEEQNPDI
T2 sequence (P29597 589-875 limits assumed): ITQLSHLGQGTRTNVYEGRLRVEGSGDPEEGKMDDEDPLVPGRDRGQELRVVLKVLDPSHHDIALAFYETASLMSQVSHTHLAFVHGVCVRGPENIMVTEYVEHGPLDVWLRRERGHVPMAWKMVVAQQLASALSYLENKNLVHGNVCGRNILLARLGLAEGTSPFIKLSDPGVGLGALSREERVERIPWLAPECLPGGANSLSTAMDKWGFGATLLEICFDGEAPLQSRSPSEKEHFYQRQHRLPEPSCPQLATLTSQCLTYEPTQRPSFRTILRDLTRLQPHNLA

| Compound | IC50 [1, 2] | IC50 (JAK1-JH2 domain) | IC50 (TYK2-JH2 domain) | JAK1/TYK2 selectivity (TYK2-JH2 domain) | IC50 ([1]; BaF3, 72 h compound treatment) |
| --- | --- | --- | --- | --- | --- |
| [2H]C([2H])([2H])OCc1ccc2c(c(Nc3cc(NC(=O)C4CC4)ncc3C(F)(F)CC)nn2C)c1OC [Example 172, N-(5-(1,1-difluoropropyl)-4-((4-methoxy-5-((methoxy-d3)methyl)-1-methyl-1H-indazol-3-yl)amino)pyridin-2-yl)cyclopropanecarboxamide] | 21.9 nM | 18.2 nM | 0.79 nM | 22.99 |  |
| COC1CN(c2ccc3nc(Nc4cc(NC(=O)C5CC5)ncc4C(C)(F)F)nn3c2)C1 [Example 176, N-(5-(1,1-difluoroethyl)-4-((6-(3-methoxyazetidin-1-yl)-[1,2,4]triazolo[1,5-a]pyridin-2-yl)amino)pyridin-2-yl)cyclopropanecarboxamide] | 13.3 nM | 17.1 nM | 0.768 nM | 22.21 |  |
| COC(=O)c1cnc(NC(=O)C2CC2)nc1Nc1cccc(-c2ncn(C)n2)c1OC [Example 56, Methyl 2-(cyclopropanecarboxamido)-4-((2-methoxy-3-(1-methyl-1H-1,2,4-triazol-3-yl)phenyl)amino)pyrimidine-5-carboxylate] | 148 nM | 52.6 nM | 0.967 nM | 54.42 |  |
| [2H]C([2H])([2H])NC(=O)c1cnc(NC(=O)[C@@H]2C[C@@H]2F)cc1Nc1nn(C)c2ccc([C@H](O)C(F)(F)F)c(OC)c12 [Example 194, 6-((1S,2S)-2-Fluorocyclopropane-1-carboxamido)-4-((4-methoxy-1-methyl-5-((S)-2,2,2-trifluoro-1-hydroxyethyl)-1H-indazol-3-yl)amino)-N-(methyl-d3)nicotinamide] | 0.241 nM | 3.9 nM | 0.08 nM | 48.8 |  |
| [2H]C([2H])([2H])OC(=O)c1cnc(NC(=O)C2CC2)cc1Nc1cnn2ccc([C@H](OC)C(F)(F)F)c(OC)c12 [Example 79, Methyl-d3 (S)-6-(cyclopropanecarboxamido)-4-((4-methoxy-5-(2,2,2-trifluoro-1-methoxyethyl)pyrazolo[1,5-a]pyridin-3-yl)amino)nicotinate] | 109 nM | 42.7 nM | 0.28 nM | 150.32 |  |
| COCCn1ccc(Nc2cc(Nc3nn(C)c4ccc([C@H](OC)C(F)(F)F)c(OC)c34)c(C(=O)OC)cn2)n1 [Example 181, Methyl (S)-4-((4-methoxy-1-methyl-5-(2,2,2-trifluoro-1-methoxyethyl)-1H-indazol-3-yl)amino)-6-((1-(2-methoxyethyl)-1H-pyrazol-3-yl)amino)nicotinate] | 35.2 nM | > 298 nM | 0.309 nM | >966 |  |
| COc1c(Nc2cc(NC(=O)C3CC3)ncc2C(C)(F)F)cccc1-c1cnn(C)n1 [Example 168, N-(5-(1,1-difluoroethyl)-4-((2-methoxy-3-(2-methyl-2H-1,2,3-triazol-4-yl)phenyl)amino)pyridin-2-yl)cyclopropanecarboxamide] | 19.1 nM | 1.03 nM | 0.27 nM | 3.81 |  |
| [2H]C([2H])([2H])NC(=O)c1cnc(NC(=O)C2CC2)cc1Nc1cnn2ccc(C(O)(C(F)(F)F)C(F)(F)F)c(OC)c12 [Example 84, 6-(Cyclopropanecarboxamido)-4-((5-(1,1,1,3,3,3-hexafluoro-2-hydroxypropan-2-yl)-4-methoxypyrazolo[1,5-a]pyridin-3-yl)amino)-N-(methyl-d3)nicotinamide] |  | > 298 nM | 4.24 nM | >70.42 | 634 nM |
| COc1c([C@H](OC)C(F)(F)F)ccn2ncc(Nc3cc(NC(=O)C4CC4)ncc3C(O)C(F)(F)F)c12 (stereo partly drawn) [Example 90, N-(4-((4-methoxy-5-((S)-2,2,2-trifluoro-1-methoxyethyl)pyrazolo[1,5-a]pyridin-3-yl)amino)-5-(2,2,2-trifluoro-1-hydroxyethyl)pyridin-2-yl)cyclopropanecarboxamide] | > 5000 nM | > 298 nM | > 298 nM |  |  |
| [2H]C([2H])([2H])NC(=O)c1cnc(NC(=O)C2CC2)cc1Nc1cnn2ccc(COC)c(OC)c12 [Example 16, 6-(Cyclopropanecarboxamido)-4-((4-methoxy-5-(methoxymethyl)pyrazolo[1,5-a]pyridin-3-yl)amino)-N-(methyl-d3)nicotinamide] | 87 nM | 14.1 nM | 0.22 nM | 64.0 |  |
| CCC(F)(F)c1cnc(NC(=O)C2CC2)cc1Nc1cccc(-c2cnn(C)n2)c1OC [Example 184, N-(5-(1,1-Difluoropropyl)-4-((2-methoxy-3-(2-methyl-2H-1,2,3-triazol-4-yl)phenyl)amino)pyridin-2-yl)cyclopropanecarboxamide] | 14.9 nM | 6.85 nM | 0.216 nM | 31.71 |  |
| [2H]C([2H])([2H])NC(=O)c1cnc(NC(=O)C2CC2)cc1Nc1cnn2ccccc12 [Example 40, 6-(Cyclopropanecarboxamido)-N-(methyl-d3)-4-(pyrazolo[1,5-a]pyridin-3-ylamino)nicotinamide] | > 5000 nM | > 298 nM | 186 nM | >1.6 |  |
| CNC(=O)c1cnc(NC(=O)C2CC2)cc1Nc1nn(C)c2ccc([C@H](OC)C(F)(F)F)c(OC)c12 [Example 190, (S)-6-(Cyclopropanecarboxamido)-4-((4-methoxy-1-methyl-5-(2,2,2-trifluoro-1-methoxyethyl)-1H-indazol-3-yl)amino)-N-methylnicotinamide] | 0.196 nM | 1.95 nM | 0.076 nM | 25.71 |  |
| [2H]C([2H])([2H])O[C@@H](c1ccn2ncc(Nc3cc(NC(=O)C4CC4)ncc3C(=O)OC)c2c1OC)C(F)(F)F [Example 47, Methyl (S)-6-(cyclopropanecarboxamido)-4-((4-methoxy-5-(2,2,2-trifluoro-1-(methoxy-d3)ethyl)pyrazolo[1,5-a]pyridin-3-yl)amino)nicotinate] | 70.6 nM | 46.5 nM | 0.221 nM | 210.20 |  |
| [2H]C([2H])([2H])OC(=O)c1cnc(NC(=O)C2CC2)cc1Nc1ncn2ncc(CC)c2c1OC [Example 59, Methyl-d3 6-(cyclopropanecarboxamido)-4-((3-ethyl-4-methoxypyrazolo[1,5-c]pyrimidin-5-yl)amino)nicotinate] | 208 nM | 44.1 nM | 0.834 nM | 52.94 |  |
| [2H]C([2H])([2H])NC(=O)c1nnc(NC(=O)C2CC23CC3)cc1Nc1cnn2ccc([C@H](O)C(F)(F)F)c(OC)c12 (single isomer, unassigned) [Example 82A, 4-((4-Methoxy-5-((S)-2,2,2-trifluoro-1-hydroxyethyl)pyrazolo[1,5-a]pyridin-3-yl)amino)-N-(methyl-d3)-6-((R*)-spiro[2.2]pentane-1-carboxamido)pyridazine-3-carboxamide] | 35 nM | 7.96 nM | 0.21 nM | 38.29 |  |
| [2H]C([2H])([2H])O[C@H](c1ccc2c(c(Nc3cc(NC(=O)C4CC4)ncc3C(=O)OC)nn2C)c1OC)C(F)(F)F [Example 50A, Methyl (R)-6-(cyclopropanecarboxamido)-4-((4-methoxy-1-methyl-5-(2,2,2-trifluoro-1-(methoxy-d3)ethyl)-1H-indazol-3-yl)amino)nicotinate] | 131 nM | > 298 nM | 1.04 nM | >287.30 |  |
| COC(=O)c1cnc(Nc2ccc(F)cn2)cc1Nc1nn(C)c2ccc([C@H](OC)C(F)(F)F)c(OC)c12 [Example 169, Methyl (S)-6-((5-fluoropyridin-2-yl)amino)-4-((4-methoxy-1-methyl-5-(2,2,2-trifluoro-1-methoxyethyl)-1H-indazol-3-yl)amino)nicotinate] | 8.33 nM | > 298 nM | 0.19 nM | >1571 |  |
| COC(=O)c1cnc(NC(=O)C2CC2)cc1Nc1cnn2ccc(C(C)C(F)(F)F)c(OC)c12 (stereo not shown) [Example 93, Methyl 6-(cyclopropanecarbonylamino)-4-[[4-methoxy-5-(2,2,2-trifluoro-1-methylethyl)pyrazolo[1,5-a]pyridin-3-yl]amino]pyridine-3-carboxylate] | 577 nM | 63.7 nM | 1.24 nM | 51.39 |  |
| COC(=O)c1cnc(NC(=O)C2CC2)cc1Nc1nn(C)c2ccc(C(C)C(F)(F)F)c(OC)c12 (stereo not shown) [Example 123, Methyl 6-(cyclopropanecarboxamido)-4-((4-methoxy-1-methyl-5-(1,1,1-trifluoropropan-2-yl)-1H-indazol-3-yl)amino)nicotinate] | 88.3 nM | 174 nM | 0.37 nM | 470.33 |  |
| [2H]C([2H])([2H])NC(=O)c1nnc(NC(=O)C2CC2)cc1Nc1cccc(-c2ncn(C)n2)c1C(C)=O [Example 87, 4-((2-Acetyl-3-(1-methyl-1H-1,2,4-triazol-3-yl)phenyl)amino)-6-(cyclopropanecarboxamido)-N-(methyl-d3)pyridazine-3-carboxamide] | 1860 nM | > 298 nM | > 298 nM |  |  |
